# Measurements: patent US10669334B2, “Treatment for Dupuytren's disease” (Oxford University Innovation Limited, priority 2010, dated 2020)
# B1: murine S100A8: murine Alarmin S100A8 (protein, UniProt P27005 2-89, looked up)
# Protein S100-A8: PSELEKALSNLIDVYHNYSNIQGNHHALYKNDFKKMVTTECPQFVQNINIENLFRELDINSDNAINFEEFLAMVIKVGVASHKDSHKE
# B2: S100A9: Alarmin (DAMP) protein (protein, UniProt P06702 1-114, looked up)
# Protein S100-A9: MTCKMSQLERNIETIINTFHQYSVKLGHPDTLNQGEFKELVRKDLQNFLKKENKNEKVIEHIMEDLDTNADKQLSFEEFIMLMARLTWASHEKMHEGDEGPGHHHKPGLGEGTP
# B3: HMGB1: high mobility group box protein, an Alarmin (DAMP) (protein, UniProt P09429 1-215, looked up)
# High mobility group protein B1: MGKGDPKKPRGKMSSYAFFVQTCREEHKKKHPDASVNFSEFSKKCSERWKTMSAKEKGKFEDMAKADKARYEREMKTYIPPKGETKKKFKDPNAPKRPPSAFFLFCSEYRPKIKGEHPGLSIGDVAKKLGEMWNNTAADDKQPYEKKAAKLKEKYEKDIAAYRAKGKPDAAKKGVVKAEKSKKKKEEEEDEEDEEDEEEEEDEEDEDEEEDDDDE
# How the values were obtained:
# palmar fibroblasts = assay: Culture force monitor: isometric force contraction of collagen gels seeded with palmar fibroblasts; format: cell-based, human; settings: 24 h; for isometric force contraction of palmar fibroblasts: 1 ng/ml, versus PS alone, FIG. 12 / FIG. 22
# Excerpt: The culture force monitor (CFM) utilised and culture conditions are shown in FIGS. 3A to 3E: (A) Rectangular seeded collagen gels were cast and floated in medium, tethered between two flotation bars one of which is held stationary whilst the other is attached to a force transducer. (B) Cell-generated tensional forces in the collagen gel are detected by the force transducer, and live data are logged every 15 seconds providing a continuous output of force (dynes, […]) generated. (C) After 24 hour contraction, gels are harvested and processed for α-SMA mRNA, protein and immunofluorescence. (D) Cells were routinely seeded in gels with a high aspect-ratio collagen lattice, although low aspect-ratio lattices (E) were also used in experiments to compare effects of less strain on cell contractility. […]
# Collagen gels seeded with palmar fibroblasts were cultured for 24 h with supernatants from AGE-(100 μg/ml) stimulated monocytes (M) in the absence or presence of anti TNF-α (10 μg/ml) and isometric force contraction quantified. Experiments were performed in duplicate. […]
# [1] = tested on: non-palmar dermal fibroblasts; assay: Culture force monitor: contraction rate of non-palmar dermal fibroblasts; format: cell-based, human; settings: 1 ng/ml; 24 h; one patient; FIG. 22
# Excerpt: The culture force monitor (CFM) utilised and culture conditions are shown in FIGS. 3A to 3E: (A) Rectangular seeded collagen gels were cast and floated in medium, tethered between two flotation bars one of which is held stationary whilst the other is attached to a force transducer. (B) Cell-generated tensional forces in the collagen gel are detected by the force transducer, and live data are logged every 15 seconds providing a continuous output of force (dynes, […]) generated. (C) After 24 hour contraction, gels are harvested and processed for α-SMA mRNA, protein and immunofluorescence. (D) Cells were routinely seeded in gels with a high aspect-ratio collagen lattice, although low aspect-ratio lattices (E) were also used in experiments to compare effects of less strain on cell contractility.
# We then compared the effect of TNF-α on the rate of contraction on palmar skin and non-palmar skin from a Dupuytren's patient. Collagen gels seeded with palmar fibroblasts were cultured for 24 h in the absence (PS or NPS alone) or presence of TNF-α (1 ng/ml). Data are shown as +/−SD from triplicate experiments using cells from 3 patients for palmar skin and one patient non-palmar skin (**p=0.0012, ns=not significant). […]
# [2] = cited from earlier work
# human monocytes = assay: TNF-α production by human monocytes (ELISA); format: cell-based
# Procedure: LPS, a pathogen associated molecular pattern (PAMP) is shown as positive control.
# The known receptors for S100A8 are the receptor for advanced glycation end products (RAGE) and the Toll-like receptors 2 and 4. Human monocytes at 1×10^5/ml were incubated in 10% FCS with human S100 A8 at 0.5 with the addition of either antibody to TLR4, TLR2 or isotype controls (not shown), or soluble RAGE (sRAGE)) over 14 hours. TNF-α levels were determined by ELISA.
# It is more difficult to show in vitro that HMGB1 also acts on monocytes to lead to pro-inflammatory cytokine release. […] Our experiment, the results of which are shown in FIG. 18, involved human monocytes at 1×10^5/ml incubated in 10% FCS with HMGB1 or LPS alone or together at concentrations shown over 14 hours. TNF-α levels were determined by ELISA.
# murine bone marrow cells = assay: TNF-α production by murine bone marrow cells (wild type, TLR4-/-, MyD88-/-) by ELISA; format: cell-based; settings: TLR4-/- and MyD88-/- mice, FIG. 17
# Procedure: In FIG. 17, TNF-α produced by murine bone marrow cells of wild type, TLR4^−/− and MyD88^−/− mice on exposure to murine S100A8 were measured by ELISA.
# [3] = phase III clinical trial, Hurst et al 2009
# [4] = exposure to alarmin over tested range, FIG. 15
molecule,measurement,setting,value
TNF-α,isometric force contraction of palmar fibroblasts,palmar fibroblasts,significantly enhanced contraction
same,contraction rate of non-palmar dermal fibroblasts,[1],"no change, or a slight reduction, in contraction rate"
TGF-β1: cytokine that leads to development of the myofibroblast phenotype,palmar fibroblast contractility,"palmar fibroblasts; 10 ng/ml, compared to untreated palmar fibroblasts, p=0.0001, FIG. 12",significant increased palmar fibroblast contractility
same,contractility of human palmar fibroblasts in collagen lattice under isometric conditions,"palmar fibroblasts; TGF-β1, cells from 3 patients, FIG. 21",enhanced contractility
"bacterial collagenase: bacterial (Clostridial) collagenase for enzymatic fasciotomy, FDA approved as Xiaflex",recurrence rates in patients with PIPJ contractures,"[2]; 2 years follow-up, Badalamente et al 2007",57%
same,MCPJ contractures effectively treated (to within 5° of full extension),[2]; [3],77%
same,PIPJ contractures effectively treated (to within 5° of full extension),[2]; [3],40%
"S100A8: Alarmin (DAMP) protein, human",TNF-α production by human monocytes,human monocytes; [4],produced TNF-α in a dose dependent manner
same,receptor mediating TNF-α production by human monocytes,"human monocytes; human S100 A8 at 0.5 with antibody to TLR4, TLR2 or soluble RAGE, 14 hours, FIG. 16",TLR-4 and not RAGE or TLR-2
same,relative activity in TNF-α production by human monocytes,"human monocytes; within the tested range, FIG. 15",more active than S100A9 and S100A12
AGEs,palmar fibroblast contraction with supernatants from AGE-stimulated monocytes,"palmar fibroblasts; AGE 100 μg/ml stimulated monocyte supernatant, absence or presence of anti TNF-α 10 μg/ml, FIG. 20",stimulated palmar fibroblast contraction in a TNF-α dependent manner
same,contractility of palmar dermal fibroblasts,"palmar fibroblasts; AGEs-BSA 150 μg/ml, FIG. 14",not affected
B1,receptor/signalling dependence of TNF-α production,murine bone marrow cells,predominantly binds to TLR-4 and that the intracellular signalling leading to TNF-α production by monocytes is entirely dependent on adaptor protein MyD88
B2,TNF-α production by human monocytes,human monocytes; [4],to some extent
B3,isometric force contraction of palmar fibroblasts,palmar fibroblasts,"trend towards increased contraction resulting from HMGB1, this was not statistically significant"
same,TNF-α production by human monocytes,"human monocytes; HMGB1 alone, 14 hours, FIG. 18",does not stimulate TNF-α production by monocytes
same,TNF-α production by human monocytes,"human monocytes; HMGB1 together with LPS, 14 hours, FIG. 18",active in combination with LPS
